Results on four molecules are retold here after patent US20220387375A1, “TRPV1 ACTIVATION-MODULATING COMPLEX MIXTURES OF CANNABINOIDS AND/OR TERPENES” (GBS Global Biopharma, Inc., priority 2018, published 2022).

The target of this experiment is T1, TRPV2 (Homo sapiens, UniProt Q9Y5S1).
T1 construct: host or cells: HEK TRex293
T1 sequence (Q9Y5S1 1-764): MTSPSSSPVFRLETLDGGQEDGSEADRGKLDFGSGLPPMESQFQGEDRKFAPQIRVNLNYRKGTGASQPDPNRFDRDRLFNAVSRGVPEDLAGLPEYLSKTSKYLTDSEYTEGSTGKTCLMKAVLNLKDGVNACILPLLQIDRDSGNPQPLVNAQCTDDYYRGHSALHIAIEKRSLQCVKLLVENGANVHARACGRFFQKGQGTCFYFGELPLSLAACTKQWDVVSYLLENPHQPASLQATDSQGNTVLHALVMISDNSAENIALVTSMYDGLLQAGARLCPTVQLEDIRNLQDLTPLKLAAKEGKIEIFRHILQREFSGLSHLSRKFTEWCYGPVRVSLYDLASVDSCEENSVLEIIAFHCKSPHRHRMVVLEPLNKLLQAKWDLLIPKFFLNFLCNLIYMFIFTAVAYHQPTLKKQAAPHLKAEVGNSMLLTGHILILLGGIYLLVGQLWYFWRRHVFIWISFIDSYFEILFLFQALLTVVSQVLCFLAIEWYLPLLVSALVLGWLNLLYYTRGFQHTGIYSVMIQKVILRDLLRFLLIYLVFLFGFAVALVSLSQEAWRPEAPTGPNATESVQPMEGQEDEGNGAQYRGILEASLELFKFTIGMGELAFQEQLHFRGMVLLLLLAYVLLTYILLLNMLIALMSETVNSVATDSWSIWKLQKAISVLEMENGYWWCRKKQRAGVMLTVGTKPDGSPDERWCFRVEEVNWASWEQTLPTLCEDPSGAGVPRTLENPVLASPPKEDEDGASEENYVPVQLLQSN
As to the kind of experiment: Bulk calcium assay (Fluo-4) in HEK cells overexpressing TRPV2. In kind it is cell-based. As to the method:
HEK TRexTRPV1 were cultured in DMEM, 10% Fetal Bovine Serum, 2 mM Lglutamine, 10 μg/ml Blasticidin (Calbiochem, San Diego Calif.), 400 μg/ml Zeocin (InvivoGen, San Diego Calif.), where indicated transgene expression was induced using 1 μg/ml Tetracycline for 16-24 hrs. Unless otherwise indicated, basal expression of TRPV1 without induction was sufficient for these studies, and comparisons were made to untransfected HEK where needed. HEKTRex293 over-expressing human TRPV2, human TRPA1 and human TRPM8 were obtained from SB Drug Discovery (Glasgow, Scotland) and cultured as described above. The cannabinoids and terpenes were assayed in HEK cells that have been transfected with the TRPV1 ion channel protein. These cells are called HEK293-V1 cells.
Cells were washed and incubated with 0.2 micromolar Fluo-4 for 30 minutes at 37° C. in a standard modified Ringer's solution of the following composition (in mM): NaCl 145, KCl 2.8, CsCl 10, CaCl2 10, MgCl2 2, glucose 10, Hepes·NaOH 10, pH 7.4, 330 mOsm. Cells were transferred to 96-well plates at 50,000 cells/well and stimulated as indicated. Calcium signals were acquired using a Flexstation 3 (Molecular Devices, Sunnydale, USA). Data was analyzed using SoftMax® Pro 5 (Molecular Devices). Where indicated, nomically calcium-free external conditions were achieved by the preparation of 0 mM CaCl2 Ringer solution containing 1 mM EGTA.
Calcium responses mediated by TRPA1, TRPM8, TRPV2, and TRPV1 were tested by calcium assay in the cell culture system. Cells were washed and incubated with 0.2 μM fluo-4 acetoxymethyl ester (“Fluo-4”) for 30 minutes at 37° C. in a standard modified Ringer's solution of the following composition (in mM): NaCl 145, KCl 2.8, CsCl 10, CaCl2 10, MgCl2 2, glucose 10, Hepes·NaOH 10, pH 7.4, 330 mOsm. Cells were transferred to 96-well plates at 50,000 cells/well and stimulated with 10 μM myrcene diluted in DMSO. Vehicle (DMSO) was used as a negative control. Vehicle traces were subtracted from the myrcene traces for each cell line.
The potential for different cannabinoids to target specific TRP channels, or to co-target more than one channel type, are of potential therapeutic options for the treatment and management of pain. Comparison of the impacts of a variety of cannabinoid on overexpression systems for TRPV2, TRPM8, and TRPA1 were performed in a side-by-side fashion, under bulk calcium assays where the measurements with each trace representing averaged triplicates of 100,000 cells per sample. As shown in FIGS. 41-43 and summarized in Table 3, there are clear differences in responsiveness between cannabinoids at a single channel type than between channel types to a given cannabinoid.

On to `C=C(C)[C@@H]1CCC(C)=C[C@H]1c1c(O)cc(CCCCC)cc1O` [CBD, Cannabidiol], for which the “mean maximal Ca^2+ signal RFU achieved 0-180 s (SD), TRPV1” value is recorded as 12.53 (0.28) RFU. As to `C=C(C)[C@@H]1CCC(C)=C[C@H]1c1c(O)cc(CCC)cc1O` [CBDV, Cannabidivarin], the “mean maximal Ca^2+ signal RFU achieved 0-180 s (SD), TRPV1” value is 13.07 (0.03) RFU. The value for `CCCCCc1cc(O)c(C/C=C(\C)CCC=C(C)C)c(O)c1` [CBG, Cannabigerol] was 2.19 (0.62) RFU; that for `CCCCCc1cc(O)c2c(c1)OC(C)(C)c1ccc(C)cc1-2` [CBN, Cannabinol] was 4.03 (0.64) RFU.
